Measured values taken from patent US20240132464A1, “HETEROCYCLIC COMPOUNDS AS E3 LIGASE INHIBITORS” (Accutar Biotechnology Inc., priority 2022, published 2024).

These molecules were tested against T1, GID4 (Uniprot ID: Q81VV7, residues 124-289) (Homo sapiens, UniProt Q8IVV7) (assay: GID4 competitive binding assay (AlphaScreen, GID4/degron peptide PGLW)). Conditions: 24 nM GID4, 48 nM biotinylated degron peptide PGLW, 4° C., read-out: IC50 (Inhibition of GID4/Degron binding by test compounds).
T1 construct: GID4 (Uniprot ID: Q81VV7, residues 124-289)
T1 sequence (Q8IVV7 124-289): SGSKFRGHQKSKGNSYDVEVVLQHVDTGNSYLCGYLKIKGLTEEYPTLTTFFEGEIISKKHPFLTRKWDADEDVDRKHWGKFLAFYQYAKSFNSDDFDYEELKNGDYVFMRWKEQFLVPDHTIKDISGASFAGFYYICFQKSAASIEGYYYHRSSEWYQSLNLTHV
How it was run: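 His-tagged human GID4 (residues 124-289, 24 nM) pre-incubated 2 h at 4 °C with 48 nM biotinylated PGLW peptide and compound in HEPES pH 7.5 buffer, 2% DMSO (final). AlphaScreen streptavidin donor/Ni-NTA acceptor beads added for 1 h; IC50 from nonlinear fit of % inhibition versus DMSO.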

For `CN1CCN(c2cc(NC3CC3)nc(N)n2)CC1c1ccccc1Br` (stereo not shown) [Compound 101, 6-(3-(2-bromophenyl)-4-methylpiperazin-1-yl)-N4-cyclopropylpyrimidine-2,4-diamine], which IC50 is on record?
Its IC50 is < 500 nM.

For `CN(C)CCCNC(=O)c1ccc(-c2cc(O)c3nccnc3c2)cc1` [Compound 285, N-(3-(dimethylamino)propyl)-4-(8-hydroxyquinoxalin-6-yl)benzamide], which IC50 is on record?
Its IC50 is < 500 nM.

`CN1CCN(c2cc(N)nc(NC3CC3)n2)CC1c1ccccc1Br` (stereo not shown) [Compound 71, 6-(3-(2-bromophenyl)-4-methylpiperazin-1-yl)-N2-cyclopropylpyrimidine-2,4-diamine] was tested. Which IC50 did it give?
Its IC50 is < 500 nM.

`CC(C)c1cc(N(C)CCc2c[nH]c3ccccc23)nc(N)n1` [Compound 179, N4-(2-(1H-indol-3-yl)ethyl)-6-isopropyl-N4-methylpyrimidine-2,4-diamine] was tested. Which IC50 did it give?
The IC50 was 500 to 5000 nM.

How did the IC50 turn out when `CN(C)CCCNC(=O)c1cnc(-c2cc(O)c3ncccc3c2)cn1` [Compound 276, N-(3-(dimethylamino)propyl)-5-(8-hydroxyquinolin-6-yl)pyrazine-2-carboxamide] was run?
Its IC50 is < 500 nM.

For `CN(C)CCNC(=O)c1csc(-c2cc(O)c3ncccc3c2)c1` [Compound 268, N-(2-(dimethylamino)ethyl)-5-(8-hydroxyquinolin-6-yl)thiophene-3-carboxamide], which IC50 is on record?
Its IC50 is < 500 nM.

With `Nc1nc(N)c(Cl)c(N2CCNC(c3ccccc3Br)C2)n1` (stereo not shown) [Compound 68, 6-(3-(2-bromophenyl)piperazin-1-yl)-5-chloropyrimidine-2,4-diamine] as the molecule, how does the IC50 read?
Its IC50 is > 5000 nM.

For `CC(C)c1cc(N2CCN(C)[C@@H](c3ccccc3Br)C2)nc(N)n1` (racemic) [Compound 161, (S/R)-4-(3-(2-bromophenyl)-4-methylpiperazin-1-yl)-6-isopropylpyrimidin-2-amine], which IC50 is on record?
The IC50 was 500 to 5000 nM.

With `CN1CCN(CCc2cccc(-c3ccc4ccnc(N)c4c3)c2)CC1` [Compound 344, 7-(3-(2-(4-methylpiperazin-1-yl)ethyl)phenyl)isoquinolin-1-amine] as the molecule, how does the IC50 read?
Its IC50 is > 5000 nM.

How did the IC50 turn out when `CN1CCN(C(=O)c2cccc(-c3ccc4ccnc(N)c4c3)c2)CC1` [Compound 351, (3-(1-aminoisoquinolin-7-yl)phenyl)(4-methylpiperazin-1-yl)methanone] was run?
Its IC50 is > 5000 nM.

For `Nc1cc(N2CCO[C@](CO)(c3ccccc3Br)C2)nc(N)n1` (stereo in doubt) [Compound 36, (R/S)-(2-(2-bromophenyl)-4-(2,6-diaminopyrimidin-4-yl)morpholin-2-yl)methanol], which IC50 is on record?
The IC50 was > 5000 nM.

For `Nc1cc(N2CCN(CCO)[C@H](c3ccccc3Br)C2)nc(NC2CC2)n1` (stereo in doubt) [Compound 70, (R/S)-2-(4-(6-amino-2-(cyclopropylamino)pyrimidin-4-yl)-2-(2-bromophenyl)piperazin-1-yl)ethan-1-ol], which IC50 is on record?
Its IC50 is 500 to 5000 nM.

For `CC(C)c1nc(N)cc(N2CCCC(c3cnc4ccccn34)C2)n1` (single isomer, unassigned) [Compound 142, R or S-6-(3-(imidazo[1,2-a]pyridin-3-yl)piperidin-1-yl)-2-isopropylpyrimidin-4-amine], which IC50 is on record?
The IC50 was < 500 nM.

`CCc1cc(N2CCNC(c3cnc4ccccn34)C2)nc(N)n1` (single isomer, unassigned) [Compound 28, (S/R)-4-ethyl-6-(3-(imidazo[1,2-a]pyridin-3-yl)piperazin-1-yl)pyrimidin-2-amine] was tested. Which IC50 did it give?
The IC50 was < 500 nM.

How did the IC50 turn out when `COc1cc(CNC(=O)c2n[nH]c3ccc(-c4ccc5ccnc(N)c5c4)cc23)ccn1` [Compound 326, 5-(1-aminoisoquinolin-7-yl)-N-((2-methoxypyridin-4-yl)methyl)-1H-indazole-3-carboxamide] was run?
Its IC50 is < 500 nM.

For `Nc1nc(C2CC2)cc(N2CCCC(c3cnc4ccccn34)C2)n1` (stereo not shown) [Compound 139, 4-cyclopropyl-6-(3-(imidazo[1,2-a]pyridin-3-yl)piperidin-1-yl)pyrimidin-2-amine], which IC50 is on record?
The IC50 was < 500 nM.

With `CNc1cc(N2CCC[C@H](c3ccccc3Br)C2)nc(NC)n1` (stereo in doubt) [Compound 83, (R/S)-6-(3-(2-bromophenyl)piperidin-1-yl)-N2,N4-dimethylpyrimidine-2,4-diamine] as the molecule, how does the IC50 read?
Its IC50 is 500 to 5000 nM.

How did the IC50 turn out when `CN(C)CCNC(=O)c1cc2cc(-c3ccc4ccnc(N)c4c3)ccc2cn1` [Compound 356, 1′-amino-N-(2-(dimethylamino)ethyl)-[6,7′-biisoquinoline]-3-carboxamide] was run?
The IC50 was < 500 nM.

For `CC(C)c1cc(N2CCCC(c3nnc4ccccn34)C2)nc(N)n1` (stereo not shown) [Compound 194, 4-(3-([1,2,4]triazolo[4,3-a]pyridin-3-yl)piperidin-1-yl)-6-isopropylpyrimidin-2-amine], which IC50 is on record?
Its IC50 is 500 to 5000 nM.

With `Nc1nc(N2CCCC(c3ccn[nH]3)C2)c2cc[nH]c2n1` (stereo not shown) [Compound 205, 4-(3-(1H-pyrazol-5-yl)piperidin-1-yl)-7H-pyrrolo[2,3-d]pyrimidin-2-amine] as the molecule, how does the IC50 read?
The IC50 was > 5000 nM.

For `Nc1nc(NC2CC2)nc(N2CCN(CCO)C(c3ccccc3Br)C2)n1` (stereo not shown) [Compound 53, 2-(4-(4-amino-6-(cyclopropylamino)-1,3,5-triazin-2-yl)-2-(2-bromophenyl)piperazin-1-yl)ethan-1-ol], which IC50 is on record?
Its IC50 is > 5000 nM.

How did the IC50 turn out when `Nc1nc(NCC2CC2)cc(N2CCOC(c3ccccc3Br)C2)n1` (single isomer, unassigned) [Compound 77, R or S-6-(2-(2-bromophenyl)morpholino)-N^4-(cyclopropylmethyl)pyrimidine-2,4-diamine] was run?
Its IC50 is > 5000 nM.

Which IC50 does the source give for `COC(=O)c1ccc(Br)c(C2CN(c3cc(N)nc(N)n3)CCN2)c1` (stereo not shown) [Compound 38, methyl 4-bromo-3-(4-(2,6-diaminopyrimidin-4-yl)piperazin-2-yl)benzoate] here?
The IC50 was < 500 nM.

For `CN(C)CCCNC(=O)c1ccc(-c2cc(O)c3ncccc3c2)c(Br)c1` [Compound 323, 3-bromo-N-(3-(dimethylamino)propyl)-4-(8-hydroxyquinolin-6-yl)benzamide], which IC50 is on record?
The IC50 was 500 to 5000 nM.

For `CC(C)c1cc(N2CCCC(c3cnn4ccccc34)C2)nc(N)n1` (stereo not shown) [Compound 240, 4-isopropyl-6-(3-(pyrazolo[1,5-a]pyridin-3-yl)piperidin-1-yl)pyrimidin-2-amine], which IC50 is on record?
The IC50 was < 500 nM.

How did the IC50 turn out when `Nc1nccc2ccc(N3CCC(C(=O)N4CCCC4)C3)cc12` (stereo not shown) [Compound 354, (1-(1-aminoisoquinolin-7-yl)pyrrolidin-3-yl)(pyrrolidin-1-yl)methanone] was run?
The IC50 was > 5000 nM.

For `CNc1nc(N)cc(N2CCNC(c3ccccc3Br)C2)n1` (racemic) [Compound 114, (S/R)-6-(3-(2-bromophenyl)piperazin-1-yl)-N2-methylpyrimidine-2,4-diamine], which IC50 is on record?
Its IC50 is < 500 nM.

With `CC(C)c1cc(N2CCCC(c3cnc4ccccn34)C2)nc(N)n1` (stereo not shown) [Compound 178, 4-(3-(imidazo[1,2-a]pyridin-3-yl)piperidin-1-yl)-6-isopropylpyrimidin-2-amine] as the molecule, how does the IC50 read?
The IC50 was < 500 nM.

`CN(C)CCCNC(=O)CN1CC=C(c2cc(O)c3ncccc3c2)CC1` [Compound 307, N-(3-(dimethylamino)propyl)-2-(4-(8-hydroxyquinolin-6-yl)-3,6-dihydropyridin-1(2H)-yl)acetamide] was tested. Which IC50 did it give?
Its IC50 is < 500 nM.

`CC(C)c1cc(N2CCCC(c3nc4ccccc4[nH]3)C2)nc(N)n1` (stereo not shown) [Compound 181, 4-(3-(1H-benzo[d]imidazol-2-yl)piperidin-1-yl)-6-isopropylpyrimidin-2-amine] was tested. Which IC50 did it give?
Its IC50 is > 5000 nM.

With `CN(C)CCCNC(=O)c1cc(-c2cc(O)c3ncccc3c2)c[nH]1` [Compound 269, N-(3-(dimethylamino)propyl)-4-(8-hydroxyquinolin-6-yl)-1H-pyrrole-2-carboxamide] as the molecule, how does the IC50 read?
Its IC50 is < 500 nM.

How did the IC50 turn out when `CN(C)[C@H]1C[C@@H](NC(=O)c2csc(-c3cc(O)c4ncccc4c3)c2)C1` [Compound 264, N-(cis-3-(dimethylamino)cyclobutyl)-5-(8-hydroxyquinolin-6-yl)thiophene-3-carboxamide] was run?
Its IC50 is < 500 nM.

Which IC50 does the source give for `CN(C)CCCNC(=O)c1ccc(-c2cc(O)c3ncc(=O)[nH]c3c2)cc1` [Compound 273, N-(3-(dimethylamino)propyl)-4-(8-hydroxy-3-oxo-3,4-dihydroquinoxalin-6-yl)benzamide] here?
The IC50 was 500 to 5000 nM.

How did the IC50 turn out when `CC(C)c1cc(N2CCC(O)(c3ccccc3Br)C2)nc(N)n1` (stereo not shown) [Compound 231, 1-(2-amino-6-isopropylpyrimidin-4-yl)-3-(2-bromophenyl)pyrrolidin-3-ol] was run?
Its IC50 is > 5000 nM.

For `CC(C)c1cc(N2CCN(C)C(c3cnc4ccccn34)C2)nc(N)n1` (racemic) [Compound 106, (R/S)-4-(3-(imidazo[1,2-a]pyridin-3-yl)-4-methylpiperazin-1-yl)-6-isopropylpyrimidin-2-amine], which IC50 is on record?
The IC50 was < 500 nM.

How did the IC50 turn out when `Nc1nc(NC2CC2)cc(N2CCCC(c3cnc4ccccn34)C2)n1` (stereo not shown) [Compound 107, N4-cyclopropyl-6-(3-(imidazo[1,2-a]pyridin-3-yl)piperidin-1-yl)pyrimidine-2,4-diamine] was run?
The IC50 was 500 to 5000 nM.

How did the IC50 turn out when `Nc1nc(N2CCCC(c3ccn[nH]3)C2)c2sccc2n1` (stereo not shown) [Compound 217, 4-(3-(1H-pyrazol-5-yl)piperidin-1-yl)thieno[3,2-d]pyrimidin-2-amine] was run?
Its IC50 is > 5000 nM.

With `Nc1nccc2ccc(-c3csc(C(=O)N4CCCC4)c3)cc12` [Compound 349, (4-(1-aminoisoquinolin-7-yl)thiophen-2-yl)(pyrrolidin-1-yl)methanone] as the molecule, how does the IC50 read?
The IC50 was > 5000 nM.

With `Nc1cc(N2CCN(CCO)[C@H](c3ccccc3Br)C2)nc(N)n1` (stereo in doubt) [Compound 67, (R/S)-2-(2-(2-bromophenyl)-4-(2,6-diaminopyrimidin-4-yl)piperazin-1-yl)ethan-1-ol] as the molecule, how does the IC50 read?
The IC50 was 500 to 5000 nM.

How did the IC50 turn out when `Nc1cc(N2CCNC(c3cc(N4CCC(CO)CC4)ccc3Br)C2)nc(N)n1` (stereo not shown) [Compound 33, (1-(4-bromo-3-(4-(2,6-diaminopyrimidin-4-yl)piperazin-2-yl)phenyl)piperidin-4-yl)methanol] was run?
Its IC50 is < 500 nM.
